{"source": "patent US20250352511A1", "about": "(CHINOOK THERAPEUTICS, INC., priority 2022, published 2025)", "key": {"[1]": {"system": "patients with FSGS", "test": "Phase 2 open-label basket study, FSGS cohort: urine protein to creatinine ratio (UPCR)", "format": "in vivo, human", "details": "0.75 mg atrasentan daily; week 24 vs week 0; twenty patients with FSGS", "excerpt": "Subjects will be enrolled in disease specific cohorts as follows: • Cohort 1: IgAN (with UPCR 0.5 to <1.[…]) • Cohort 2: FSGS • Cohort 2b: FSGS (dose escalation) • Cohort 3: Alport syndrome • Cohort 4: DKD • Cohort 5: FSGS (higher dose cohort) Subjects in Cohorts 2 and 5 (FSGS) include the following characteristics: • Biopsy-confirmed FSGS or documentation of a genetic mutation in a podocyte protein associated with FSGS. […] Urine Protein to Creatinine Ratio (UPCR) will be assessed. Assessment of proteinuria plays an important role in the diagnosis of kidney disease and in monitoring disease activity (Zhao, 2016). UPCR is widely used for proteinuria evaluation in clinical practice. UPCR will be measured using FMV urine sample and a 24-hour urine collection at timepoints. […] Twenty patients with FSGS were enrolled in the study if the inclusion and exclusion criteria of Example 1 were met."}, "[2]": {"system": "subjects with DKD", "details": "RADAR Phase 2b, cited from earlier work"}, "[3]": {"details": "0.75 mg dose; DKD; PK-PD exposure-response model; cited from earlier work"}, "[4]": {"system": "patients with diabetic kidney disease", "details": "cited from earlier work"}, "[5]": {"details": "daily dose 0.75 mg, dose-range finding studies and exposure-response analyses"}}, "note": "Read-outs that look alike come from different tables or passages of the source."}
{"smiles": "CCCCN(CCCC)C(=O)CN1C[C@H](c2ccc3c(c2)OCO3)[C@@H](C(=O)O)[C@@H]1c1ccc(OC)cc1", "note": "[Atrasentan, (2R,3R,4S)-4-(1,3-benzodioxol-5-yl)-1-[2-(dibutylamino)-2-oxoethyl]-2-(4-methoxyphenyl)pyrrolidine-3-carboxylic acid]", "values": [{"measurement": "reduction in UPCR compared the baseline measurement", "setting": "[1]", "result": 38.3, "unit": "%"}, {"measurement": "fluid retention (body weight, edema incidence, treatment discontinuations)", "setting": "[2]; 0.75 mg dose", "result": "only minimal evidence for fluid retention"}, {"measurement": "proteinuria reduction", "setting": "[2]; 0.75 mg dose", "result": 35, "unit": "%"}, {"measurement": "fluid retention related adverse events", "setting": "[2]; 1.25 mg dose", "result": "greater fluid retention related adverse events including treatment discontinuation"}, {"measurement": "proteinuria reduction", "setting": "[2]; 1.25 mg dose", "result": 38, "unit": "%"}, {"measurement": "Ctrough range", "setting": "[3]", "result": "1.2 to 2.2", "unit": "ng/mL"}, {"measurement": "UACR", "setting": "[4]; [5]", "result": "marked reduction"}, {"measurement": "fluid retention", "setting": "[4]; [5]", "result": "only modest fluid retention"}, {"measurement": "risk of renal events (doubling of serum creatinine or end-stage kidney disease)", "setting": "[4]; patients with diabetic kidney disease", "result": "significantly reducing the risk of renal events"}, {"measurement": "most common adverse events associated with treatment", "setting": "[4]; subjects with DKD", "result": "fluid retention, hemodilution, and vasodilation"}]}
